Twelve compounds from US20060052597A1, “Aryloxyalkylamine derivatives as h3 receptor ligands” (priority 2002, published 2006) can be followed below.

Structures can show the parent of a compound that is named as a salt.

T1 sequence (Q9Y5N1 whole entry): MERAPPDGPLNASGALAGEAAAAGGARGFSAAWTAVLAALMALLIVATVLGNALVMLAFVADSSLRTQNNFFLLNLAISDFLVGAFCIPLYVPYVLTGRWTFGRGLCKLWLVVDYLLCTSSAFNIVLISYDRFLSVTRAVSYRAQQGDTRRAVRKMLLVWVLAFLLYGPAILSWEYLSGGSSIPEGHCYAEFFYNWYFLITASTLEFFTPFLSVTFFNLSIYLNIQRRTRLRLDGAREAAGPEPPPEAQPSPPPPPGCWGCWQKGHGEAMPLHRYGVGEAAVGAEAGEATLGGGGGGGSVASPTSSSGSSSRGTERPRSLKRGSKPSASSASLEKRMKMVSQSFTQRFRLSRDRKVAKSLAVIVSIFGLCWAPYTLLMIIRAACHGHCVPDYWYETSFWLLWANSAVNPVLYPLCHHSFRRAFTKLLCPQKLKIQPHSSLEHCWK

One test concerns the target T1, histamine H3 receptor (Homo sapiens, UniProt Q9Y5N1).
T1 construct: expressed in transfected cells; host or cells: CHO K1 cells carrying pSwitch, transfected with pGeneH3 and induced with mifepristone; clone 3H3; membrane preparation
Kind of test: Histamine H3 functional antagonist assay ([35S]GTPγS SPA on membranes). In kind it is biochemical.
Conditions: not given
How it is done: A membrane preparation containing histamine H3 receptors may be prepared in accordance with the following procedures:
Ligated DNA was transformed into competent DH5α E. coli host bacterial cells and plated onto Luria Broth (LB) agar containing Zeocin™ (an antibiotic which allows the selection of cells expressing the sh ble gene which is present on pGene and pSwitch) at 50 μg ml^−1. Colonies containing the religated plasmid were identified by restriction analysis. DNA for transfection into mammalian cells was prepared from 250 ml cultures of the host bacterium containing the pGeneH3 plasmid and isolated using a DNA preparation kit (Qiagen Midi-Prep) as per manufacturers guidelines (Qiagen).
CHO K1 cells previously transfected with the pSwitch regulatory plasmid (InVitrogen) were seeded at 2×10e6 cells per T75 flask in Complete Medium, containing Hams F12 (GIBCOBRL, Life Technologies) medium supplemented with 10% v/v dialysed foetal bovine serum, L-glutamine, and hygromycin (100 μg ml^−1), 24 hours prior to use. Plasmid DNA was transfected into the cells using Lipofectamine plus according to the manufacturers guidelines (InVitrogen). 48 hours post transfection cells were placed into complete medium supplemented with 500 μg ml^−1 Zeocin™.
10-14 days post selection 10 nM Mifepristone (InVitrogen), was added to the culture medium to induce the expression of the receptor.
Approximately 1×10e7 cells were examined for receptor expression by staining with a rabbit polyclonal antibody, 4a, raised against the N-terminal domain of the histamine H3 receptor, incubated on ice for 60 minutes, followed by two washes in sorting medium.
Following two further washes with Sorting Medium, cells were filtered through a 50 μm Filcon™ (BD Biosciences) and then analysed on a FACS Vantage SE Flow Cytometer fitted with an Automatic Cell Deposition Unit. […] Positively stained cells were sorted as single cells into 96-well plates, containing Complete Medium containing 500 μg ml^−1 Zeocin™ and allowed to expand before reanalysis for receptor expression via antibody and ligand binding studies.
All steps of the protocol are carried out at 4° C. and with pre-cooled reagents. The cell pellet is resuspended in 10 volumes of buffer A2 containing 50 mM N-2-hydroxyethylpiperazine-N′-2-ethanesulfonic acid (HEPES) (pH 7.40) supplemented with […] leupeptin (acetyl-leucyl-leucyl-arginal; Sigma L2884), 25 μg/ml bacitracin (Sigma B0125), 1 mM ethylenediamine tetra-acetic acid (EDTA), 1 mM phenylmethylsulfonyl fluoride (PMSF) and 2×10e-6M pepstain A (Sigma). The cells are then homogenised by 2×15 second bursts in a 1 litre glass Waring blender, followed by centrifugation at 500 g for 20 minutes. The supernatant is then spun at 48,000 g for 30 minutes. The pellet is resuspended in 4 volumes of buffer A2 by vortexing for 5 seconds, followed by homogenisation in a Dounce homogeniser (10-15 strokes). At this point the preparation is aliquoted into polypropylene tubes and stored at −70° C. […]
The plate is then incubated on a shaker at room temperature for 30 minutes followed by centrifugation for 5 minutes at 1500 rpm. The plate is read between 3 and 6 hours after completion of centrifuge run in a Wallac Microbeta counter on a 1 minute normalised tritium count protocol. Data is analysed using a 4-parameter logistic equation. Basal activity used as minimum i.e. histamine not added to well.
Background: Binding of GTPγS marks nucleotide exchange on a G protein.
As for `O=C(c1ccc(OCCCN2CCCCC2)cc1)N1CCN(C(=O)C2CCCCCC2)CC1` [Example E89, 1-[4-(3-Piperidin-1-ylpropoxy)benzoyl]-4-(cycloheptanecarbonyl)-piperazine Hydrochloride], the Kb is under 3.16 nM.

The same test, now with this note: membranes of CHO K1 clone 3H3 expressing human histamine H3; histamine 0.3 μM; guanosine 5'[γ35-S]thiotriphosphate 0.38 nM; read-out: pKb (converted).
As for `O=C(c1ccc(OCCCN2CCCCC2)cc1)N1CCN(c2ccccc2)CC1` [Example E1, N-[4-(3-Piperidin-1-ylpropoxy)benzoyl]-4-phenylpiperazine dihydrochloride], the Kb was under 3.16 nM.

For the compound `O=C(c1ccc(OCCCN2CCCCC2)cc1)N1CCN(C(=O)C2CCCCC2)CC1` [Example E57, 1-[4-(3-Piperidin-1-ylpropoxy)benzoyl]-4-(1-cyclohexanecarbonyl)-piperazine hydrochloride], the Kb was under 3.16 nM. As for `O=C(c1ccc(OCCCN2CCCCC2)cc1)N1CCN(C(=O)c2cccs2)CC1` [Example E59, 1-[4-(3-Piperidin-1-ylpropoxy)benzoyl]-4-(thiophen-2-carbonyl)-piperazine Hydrochloride], the Kb was under 3.16 nM. For `O=C(c1ccc(OCCCN2CCCCC2)cc1)N1CCN(C(=O)N2CCCC2)CC1` [Example E88, 1-[4-(3-Piperidin-1-ylpropoxy)benzoyl]-4-(pyrrolidine-1-carbonyl)-piperazine Hydrochloride], the Kb is under 3.16 nM. For the compound `C[C@@H]1CN(C(=O)c2ccc(OCCCN3CCCCC3)cc2)C[C@H](C)N1C(=O)c1ccccc1` [Example E100], the Kb is under 3.16 nM. `O=C(c1ccc(OCCCN2CCCCC2)cc1)N1CCCCC1` [Example E149, N-[4-(3-Piperidin-1-ylpropoxy)benzoyl]piperidine Hydrochloride]: the Kb was under 3.16 nM. On to `O=C(c1ccc(OCCCN2CCCCC2)cc1C(F)(F)F)N1CCCCC1` [Example E155, N-[2-Trifluoromethyl-4-(3-Piperidin-1-ylpropoxy)benzoyl]piperidine Hydrochloride], for which the Kb is under 3.16 nM.

In the case of `O=C(N[C@H]1CCN(C(=O)c2ccc(OCCCN3CCCCC3)cc2)C1)c1ccccc1` [Example E156, (S)-N-[4-(3-Piperidin-1-ylpropoxy)benzoyl]-3-benzamidopyrrolidine Dihydrochloride], the Kb is under 3.16 nM.

As for `O=C(N[C@H]1CCN(C(=O)c2ccc(OCCCN3CCCCC3)cc2)C1)c1cccc2ccccc12` [Example E158, (S)-N-[4-(3-Piperidin-1-ylpropoxy)benzoyl]-3-(naphthalene-1-carboxamidopyrrolidinedihydrochloride], the Kb was under 3.16 nM. Turning to `O=C(c1ccc(OCCCN2CCCCC2)cc1)N1CCC2(CC1)CN(c1ccccc1)C(=O)CO2` [Example E159, 4-Phenyl-9-[4-(3-piperidin-1-ylpropoxy)benzoyl]-1-oxa-4,9-diazaspiro-[5,5]-undecan-3-one hydrochloride], the Kb is under 3.16 nM. As to `O=C1NC2(CCN(C(=O)c3ccc(OCCCN4CCCCC4)cc3)CC2)CN1Cc1ccccc1` [Example E160, 3-Benzyl-8-[4-(3-piperidin-1-ylpropoxy)benzoyl]-1,3,8-triaza-spiro[4.5]-decan-2-one], the Kb is under 3.16 nM.
